Measured values taken from ChEMBL document CHEMBL4819110, “Developments of small molecules as inhibitors for carbonic anhydrase isoforms” (Bioorg Med Chem, 2021).
Each block holds one compound with its values, some of them ahead of it. Calls of active or inactive are those of the source. No cut-off for these calls is given here.

Key:
Oryctolagus cuniculus = test: Antiglaucoma activity in rabbit assessed as reduction in intraocular pressure administered topically measured upto 6 hrs; format: functional, organism-based; settings: time hrs <=6
Carbonic anhydrase 4 = Carbonic anhydrase 4 (Homo sapiens, UniProt P22748); test: Inhibition of human CA4 by stopped-flow assay
Carbonic anhydrase 4, sequence (P22748 whole entry): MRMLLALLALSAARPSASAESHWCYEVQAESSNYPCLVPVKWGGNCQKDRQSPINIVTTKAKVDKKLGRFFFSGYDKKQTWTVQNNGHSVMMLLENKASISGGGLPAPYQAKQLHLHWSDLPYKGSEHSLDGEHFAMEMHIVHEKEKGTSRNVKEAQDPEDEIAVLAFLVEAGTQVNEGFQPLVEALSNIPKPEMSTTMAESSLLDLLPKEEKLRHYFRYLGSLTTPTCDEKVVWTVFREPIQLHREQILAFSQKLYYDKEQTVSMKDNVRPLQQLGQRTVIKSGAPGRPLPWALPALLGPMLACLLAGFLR

Carbonic anhydrase 9 = Carbonic anhydrase 9 (Homo sapiens, UniProt Q16790)
Description: Inhibition of human CA9 by stopped-flow assay

HT-29 [1] = test: Down regulation of CA9 expression in human HT-29 cells at […] by western blot analysis; format: functional, cell-based
HT-29 [2] = test: Down regulation of CA12 expression in human HT-29 cells at […] by western blot analysis; format: functional, cell-based
MCF7 = test: Cytotoxicity against human MCF7 cells; format: functional, cell-based
[3] = target: Mitogen-activated protein kinase 14 (Homo sapiens, UniProt Q16539); test: Inhibition of p38alphaMAPK (unknown origin)
Mitogen-activated protein kinase 14, sequence (Q16539 whole entry): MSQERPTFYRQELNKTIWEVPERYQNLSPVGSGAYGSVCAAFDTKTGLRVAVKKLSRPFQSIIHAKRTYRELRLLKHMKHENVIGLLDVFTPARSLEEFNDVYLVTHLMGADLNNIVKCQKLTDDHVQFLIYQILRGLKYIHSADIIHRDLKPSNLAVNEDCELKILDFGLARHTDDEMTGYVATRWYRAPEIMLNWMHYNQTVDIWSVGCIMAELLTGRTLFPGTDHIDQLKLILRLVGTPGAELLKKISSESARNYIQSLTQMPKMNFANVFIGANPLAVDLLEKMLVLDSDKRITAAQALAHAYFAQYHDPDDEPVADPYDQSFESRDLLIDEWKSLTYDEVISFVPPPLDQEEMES

Carbonic anhydrase 2 = Carbonic anhydrase 2 (Homo sapiens, UniProt P00918)
Description: Inhibition of human CA2 by stopped-flow assay

Carbonic anhydrase 1 = Carbonic anhydrase 1 (Homo sapiens, UniProt P00915)
Carbonic anhydrase 1, sequence (P00915 whole entry): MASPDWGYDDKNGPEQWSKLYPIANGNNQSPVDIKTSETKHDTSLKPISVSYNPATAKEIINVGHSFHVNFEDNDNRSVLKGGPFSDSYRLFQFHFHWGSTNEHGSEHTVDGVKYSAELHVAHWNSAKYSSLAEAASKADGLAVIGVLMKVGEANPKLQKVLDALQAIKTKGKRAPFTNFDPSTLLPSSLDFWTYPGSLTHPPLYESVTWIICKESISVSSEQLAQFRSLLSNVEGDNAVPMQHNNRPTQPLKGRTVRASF
Description: Inhibition of human CA1 by stopped-flow assay

MDA-MB-231 [4] = test: Induction of apoptosis in human MDA-MB-231 cells assessed as late apoptotic cells at IC50 by flow cytometry analysis (reference value: 0.26 %); format: functional
MDA-MB-231 [5] = test: Induction of cell cycle arrest in human MDA-MB-231 cells assessed as increase in sub-G1 accumulation at IC50 by flow cytometry analysis; format: functional, cell-based
MDA-MB-231 [6] = test: Induction of apoptosis in human MDA-MB-231 cells assessed as early apoptotic cells at IC50 by flow cytometry analysis (reference value: 0.77 %); format: functional
MDA-MB-231 [7] = test: Induction of apoptosis in human MDA-MB-231 cells assessed as necrotic cells at IC50 by flow cytometry analysis (reference value: 0.51 %); format: functional
MDA-MB-231 [8] = test: Induction of cell cycle arrest in human MDA-MB-231 cells assessed as […] in G2/M accumulation at IC50 by flow cytometry analysis; format: functional, cell-based

Compound: NS(=O)(=O)c1ccc(C(=O)N[C@@H]2OC[C@@H](O)[C@H](O)[C@H]2O)cc1
Activity (Oryctolagus cuniculus): Active

Compound: CC(=O)NS(=O)(=O)c1ccc(N2C(=O)/C(=C\c3cn(C(C)=O)c4ccccc34)N=C2c2ccccc2)cc1
Ki (Carbonic anhydrase 4): > 10 µM
Ki (Carbonic anhydrase 9): 1.47 µM

Compound: NS(=O)(=O)c1ccc(C/N=C/c2c(OCc3cn(CCCOc4ccc5ccc(=O)oc5c4)nn3)ccc3ccccc23)cc1
Activity (HT-29 [1]): Active
Activity (HT-29 [2]): Active

Compound: NS(=O)(=O)c1ccc(Nc2nc(NN3C(=O)/C(=C\c4ccc(Cl)cc4)N=C3c3ccccc3)cs2)cc1
IC50 (MCF7): > 150 µM
Ki (Carbonic anhydrase 9): 0.0292 µM

Compound: CN(C)c1ccc(/C=C2/N=C(c3ccccc3)N(Nc3csc(Nc4ccc(S(N)(=O)=O)cc4)n3)C2=O)cc1
IC50 (MCF7): 38.9 µM

Compound: COC(=O)[C@H]1O[C@@H](NC(=O)c2ccc(S(N)(=O)=O)cc2)[C@H](O)[C@@H](O)[C@@H]1O
Activity (Oryctolagus cuniculus): Active

Compound: O=Cc1ccccc1OCc1cn(CCCOc2ccc3ccc(=O)oc3c2)nn1
Activity (HT-29 [1]): Active
Activity (HT-29 [2]): Active
Ki (Carbonic anhydrase 9): 0.0609 µM

Compound: COc1cc(/C=C2/N=C(c3ccccc3)N(c3ccc(S(N)(=O)=O)cc3)C2=O)cc(OC)c1OC
Ki (Carbonic anhydrase 9): 0.0682 µM

Compound: NS(=O)(=O)c1ccc(Nc2nc(NN3C(=O)/C(=C\c4ccccc4)N=C3c3ccccc3)cs2)cc1
IC50 (MCF7): 45.9 µM

Compound: COc1ccc(OC)c(/C=C2/N=C(c3ccccc3)N(c3ccc(S(N)(=O)=O)cc3)C2=O)c1
Ki (Carbonic anhydrase 9): 0.023 µM

Compound: NS(=O)(=O)c1ccc(C(=O)N[C@@H]2O[C@H](CO)[C@@H](O)[C@H](O)[C@@H]2O)cc1
Activity (Oryctolagus cuniculus): Active

Now from value to compound, other results behind:

Ki (Carbonic anhydrase 9): 0.0089 µM
Compound: CCN1C(=O)/C(=N\NC(=O)c2ccc(S(N)(=O)=O)cc2)c2ccccc21

Ki (Carbonic anhydrase 9): 0.0587 µM
Compound: NS(=O)(=O)c1ccc(N2C(=O)/C(=C\c3ccccc3)N=C2c2ccccc2)cc1

Ki (Carbonic anhydrase 9): 0.0007 µM
Compound: NS(=O)(=O)c1ccc(-n2nnc(C(=O)N3N=C(c4ccccn4)CC3(O)C(F)(F)F)c2-c2ccc(F)cc2)cc1 (stereo not drawn)

IC50 [3]: 0.14 µM
Ki (Carbonic anhydrase 4): 0.0069 µM
Ki (Carbonic anhydrase 9): 0.0124 µM
Ki (Carbonic anhydrase 2): 0.00083 µM
Ki (Carbonic anhydrase 1): 0.095 µM
Compound: COc1ccc(C2=N/C(=C/c3ccc(O)cc3)C(=O)N2c2ccc(S(N)(=O)=O)cc2)cc1

Ki (Carbonic anhydrase 4): 0.263 µM
Ki (Carbonic anhydrase 9): 0.318 µM
Compound: CC(=O)n1cc(/C=C2/N=C(c3ccccc3)N(c3ccc(S(N)(=O)=O)cc3)C2=O)c2ccccc21

Ki (Carbonic anhydrase 9): 7430 µM
Compound: NS(=O)(=O)c1ccc(NC(=O)Nc2ccc(/N=C3\C(=O)Nc4ccc(Cl)cc43)cc2)cc1
Activity (MDA-MB-231 [4]): 11.26%
Activity (MDA-MB-231 [5]): Active
Activity (MDA-MB-231 [6]): 7.28%
Activity (MDA-MB-231 [7]): 2.47%
Activity (MDA-MB-231 [8]): Active

Ki (Carbonic anhydrase 9): 1.41 µM
Compound: NS(=O)(=O)c1ccc(-n2nnc(C(=O)O)c2-c2ccccn2)cc1

IC50 (Carbonic anhydrase 9): 0.76 µM
Compound: C[C@@H]1OC[C@@](O)(NC(=O)c2ccc(S(N)(=O)=O)cc2)[C@H](O)[C@H]1O

Ki (Carbonic anhydrase 4): > 10 µM
Ki (Carbonic anhydrase 9): > 10 µM
Ki (Carbonic anhydrase 2): > 10 µM
Ki (Carbonic anhydrase 1): > 10 µM
Compound: CC(=O)n1cc(/C=C2/N=C(c3ncccn3)N(c3ccc(S(N)(=O)=O)cc3)C2=O)c2ccccc21
